From article PMC3401313 (Bioorganic & medicinal chemistry letters, 2012) come the findings set out here.

For one assay, the target named is recombinant human HDAC3 (Homo sapiens, UniProt O15379). In words: HDAC3 fluorogenic inhibition assay. As to conditions: read-out: HDAC3 %Inhibition(10µM).
In assay [1] the target is recombinant His-tagged HDAC2 (Homo sapiens, UniProt Q92769). It is filed as binding. As to conditions: probe 25 µM, HDAC2 1.25 µM, Trichostatin A 125 µM (5-fold molar excess), 24 h preincubation, 254 nm UV.
recombinant His-tagged HDAC2, sequence (Q92769 whole entry): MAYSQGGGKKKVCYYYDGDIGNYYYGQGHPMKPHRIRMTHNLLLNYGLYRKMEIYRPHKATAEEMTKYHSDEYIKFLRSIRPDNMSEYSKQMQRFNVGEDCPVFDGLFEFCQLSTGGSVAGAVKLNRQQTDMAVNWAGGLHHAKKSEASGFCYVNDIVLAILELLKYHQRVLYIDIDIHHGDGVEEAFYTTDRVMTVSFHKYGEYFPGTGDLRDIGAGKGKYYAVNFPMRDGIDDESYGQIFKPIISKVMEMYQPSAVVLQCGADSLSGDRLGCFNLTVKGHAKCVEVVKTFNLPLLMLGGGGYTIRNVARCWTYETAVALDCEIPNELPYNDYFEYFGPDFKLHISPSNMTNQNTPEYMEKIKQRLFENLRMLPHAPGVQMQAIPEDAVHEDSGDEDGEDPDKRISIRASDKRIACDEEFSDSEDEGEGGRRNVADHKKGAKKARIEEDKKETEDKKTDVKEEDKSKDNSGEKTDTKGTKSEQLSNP

recombinant human HDAC3, sequence (O15379 whole entry): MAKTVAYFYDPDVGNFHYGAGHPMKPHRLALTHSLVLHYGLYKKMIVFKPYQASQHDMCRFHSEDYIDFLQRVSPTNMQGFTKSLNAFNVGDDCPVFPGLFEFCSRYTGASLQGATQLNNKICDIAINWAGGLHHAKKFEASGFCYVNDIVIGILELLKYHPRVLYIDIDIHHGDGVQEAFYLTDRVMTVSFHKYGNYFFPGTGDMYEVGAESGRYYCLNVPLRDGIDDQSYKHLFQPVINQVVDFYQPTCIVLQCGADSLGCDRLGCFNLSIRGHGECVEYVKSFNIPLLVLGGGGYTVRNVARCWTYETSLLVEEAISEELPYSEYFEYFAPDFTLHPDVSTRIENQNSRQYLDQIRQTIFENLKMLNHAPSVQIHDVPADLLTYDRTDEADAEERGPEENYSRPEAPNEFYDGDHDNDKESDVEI
recombinant human HDAC3, sequence (Q9Y618 395-489 partner limits assumed): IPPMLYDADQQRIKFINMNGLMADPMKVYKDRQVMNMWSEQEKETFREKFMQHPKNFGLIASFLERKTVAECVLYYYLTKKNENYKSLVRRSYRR

Broadly, the inhibition is the change of the read-out against control, counted positive when it falls. For `O=C(CCCCCCC(=O)Nc1ccccc1)NO` [SAHA, suberoyl anilide hydroxamic acid], the inhibition at 10 µM on recombinant human HDAC3 stood at 100%.
Regarding `[N-]=[N+]=NCCC(=O)Nc1ccc(C(=O)Nc2cc(N=[N+]=[N-])ccc2N)cc1` [1g], the “biotinylation of HDAC2 in competition with Trichostatin A” value in assay [1] was “slightly less pronounced”.
